{
  "source": "patent US11459355B2",
  "about": "“Peptides having octopus octopressin activity and use thereof” (NATIONAL MARINE BIODIVERSITY INSTITUTE OF KOREA, priority 2018, dated 2022)",
  "system": "Octopus minor",
  "assay": "Analysis of bioactivity of octopressin peptide: behavior change of adult Octopus minor after injection",
  "type": "in vivo",
  "experimental": "Peptides satisfying the octopressin amino acid sequence and modification predicted in Example 4 were ordered and purchased from a peptide synthesizing company and used. A dried peptide powder was dissolved in tertiary distilled water to a concentration of 10 mg/ml, diluted 100 times of artificial seawater filtered through a 0.20 μm filter to prepare an injection solution. A disposable syringe and a 26 gauge needle were used to poke at a 1 cm deep, and the injection solution was administered in the center between the body of the head of the adult Octopus minor. The injection volume was 100 microgram/kg by weight of the Octopus minor. As a control group, Octopus minor without injection (before injection), Octopus minor injected with filtered artificial seawater only, and Octopus minor injected with octopus-derived octopressin were used. […] In addition, these behavior changes began to appear 1 to 5 minutes after injection and lasted for 10 to 20 minutes, and the effect peaked between 5 to 10 minutes after injection and lasted for 10 to 20 minutes. […] Here, the used Octopus minor were discarded without reuse.",
  "data": [
    {"sequence": "CFWTNCPVG (Octopressin_active peptide) [octopressin-activated peptide]", "values": [
      {"measurement": "brooding-like behavior after injection (FIG. 6B)", "setting": "Octopus minor injected with octopressin", "value": "behaviors similar to the brooding behaviors"},
      {"measurement": "behavior change after injection (repetitive bending and stretching of arms, social behaviors)", "setting": "adult Octopus minor, injection between body and head, 100 microgram/kg, total of 12 Octopus minors, regardless of sex", "value": "had bioactivity"}
    ]}
  ]
}
